What is called Tmax is the time from dosing to the highest level.

This data set is classed as in vivo, Sprague–Dawley (SD) rats. The following applies: rat plasma, single oral gavage of 10 mL/kg ABS, n = 6.

Protocol: All rats underwent an acclimation period of a week and overnight fasting with free access to water only. Rats were randomly selected and administered the ABS (n = 6, biological replicates). Each rat was administered with a single ABS oral gavage dose of 10 mL/kg. Blood samples (approximately 150 μL) were collected from the orbital venous plexus using heparinized tubes at predefined time points (0, 0.033, 0.083, 0.167, 0.25, 0.5, 0.75, 1, 2, 4, 6, 8, 10, 12, 24, 36, 48, and 60 h) post-administration. The technical personnel were proficiently trained in performing orbital venous plexus blood draws, employing a technique designed to minimize discomfort to the animals. All rats received an intragastric administration of 1 mL saline at 6 h post-dosing, after which they were provided with unrestricted access to food and water for the remainder of the experimental period. […]
Chromatographic separation was performed on a Thermo BDS Hypersil C18 column (100 × 4.6 mm, 3 µm) with linear gradient elution at a flow rate of 0.7 mL/min using methanol and water both containing 0.1% acetic acid as the mobile phases A and B, respectively. […] The quantification analysis was conducted under multiple reaction monitoring mode with argon collision gas pressure set at 0.2 Pa for collision-induced dissociation. […]

For the compound `Cc1cc(O)c2c(c1)C(=O)c1cc(O)cc(O)c1C2=O` [EM, emodin], the t1/2 amounted to 4.63 ± 1.53 h.
In the case of `O=C1C[C@@H](c2ccc(O[C@@H]3O[C@H](CO)[C@@H](O)[C@H](O)[C@H]3O)cc2)Oc2cc(O)ccc21` [LI, liquiritin], the Tmax was found to be 0.20 ± 0.03 h.

The values are drawn from PMC13028611, “Hepatotoxicity Assessment of Anshenbunao Syrup by Multi-Component Quantification In Vivo/In Vitro and Cell Biological Evaluations” (Pharmaceuticals, 2026).
